Measurements as given in patent publication US8987212B2, “Oleanoyl peptide composition and method of treating skin aging” (priority 2007, dated 2015).
Converted amounts (≈) assume the structure as drawn. Where a SMILES comes first, the peptide text is derived from it. The star is where a group is joined. Palmitoyl = CCCCCCCCCCCCCCCC(=O)*

Assays:
Human osteosarcoma cells = test: Collagen enhancement by Sirius Red staining; assay type: cell-based
Description: Collagen enhancement was determined by using Sirius Red stain that binds with a greater specificity to Collagen type I and Collagen type III of the extracellular matrix. The stain bound to the collagen is dissolved and the optical density (OD) is measured spectrophotometrically using a Fluostar optima microtiter plate reader at 544 nm. The OD of the stain bound to collagen is directly proportional to the collagen content in the cells.
Human osteosarcoma cells from human bone were used for collagen enhancement studies. The cells were seeded with a seeding density of 10000 cells per well of a 24 well plate. Confluent monolayers of cells were initially treated with varying non cytotoxic concentrations of Oleanoyl peptide and vehicle (control) in the culture medium. For each concentration, 4 replicates were maintained and the analysis was performed twice such that the ‘n’ value is 8. After sample treatment, the cells were incubated in a CO2 incubator for 48 hrs. The cells were then developed by Sirius red staining technique to analyze the collagen enhancement. The cells were washed extensively with PBS. The cells were fixed using Bouin's fluid containing 1.3% picric acid, 35% formaldehyde and glacial acetic acid in 15:5:1 ration by incubating with 1 ml of Bouin's fluid per well for 1 hr at RT. The fixative is then removed by suction with micropipette and the cells were washed under running tap water for 15 minutes. After air drying the culture plate, the cells were stained using 0.1% Sirius red stain in 1.3% picric acid. 1 ml per well Sirius red stain was added and the cells were incubated for 1 hr under mild shaking of 70 RPM at RT in Orbitek Shaker. The stain was then removed by suction and the cells were extensively washed with 0.01N HCl to remove unbound dye. The dye bound to collagen was then dissolved in 0.2 ml of 0.1N NaOH per well for 30 minutes under mild shaking of 70 RPM in Orbitek Shaker at RT. The dye was then transferred to 96 well microplate and the OD was read at 544 nm in Fluostar Optima microplate reader.
The percentage enhancement in collagen with respect to the untreated cells considering the OD of untreated cells as optimal under normal conditions is calculated as follows, % enhancement in […]=[(100/C)×T]−100 Where C=absorbance due to collagen in untreated cells
T=absorbance due to collagen in sample treated cells

TNF α = TNF α inhibition in LPS-stimulated human whole blood (ELISA); assay type: cell-based; details: for TNF α inhibition (IC50 μg/ml): human whole blood, LPS 1 ng/mL
Description: For TNF α inhibitory study, human whole blood is used. In whole blood assay, monocytes appear to be the main source of TNF-α on lipopolysaccharide (LPS) stimulation. Monocyte and macrophages are a major source of TNF-α in addition to other cell types like eosinophils, mast cells, peripheral lymphocytes and granulocytes. The activation of inflammatory cells is influenced by the intracellular levels of c-AMP which are regulated by the phosphodiesterase isoenzyme. […] After stimulation, the assay employs the quantitative sandwich enzyme immunoassay technique. A monoclonal antibody specific for TNF-α has been pre-coated onto a microplate. TNF-α present in the sample is bound by the immobilized antibody. After washing away any unbound substances, an enzyme-linked polyclonal antibody specific for TNF-α is added. Following a wash to remove any unbound antibody-enzyme reagent, a substrate solution is added to the wells and colour develops in proportion to the amount of TNF-α bound in the initial step. The colour development is stopped and the intensity of the colour is directly proportional to the TNF-α content.
Heparinized blood from healthy donors was diluted 1:3 in RPMI 1640 culture medium containing 10% FBS. […] 0.1% DMSO was used as vehicle for water insoluble samples. After pre-incubation, the whole blood cells were stimulated by 1 ng/mL LPS for the release of TNF α from the macrophages by incubating for 5 hr at 37° C. in an incubator with 5% COP. The samples were then centrifuged at 3000 g for 3 minutes at 4° C. and the supernatant was assayed for TNF α content by using the TNF α Elisa kit. 200 μL of supernatant from all the tubes was transferred into microtiter plate in respective wells (Pre-coated mouse monoclonal antibody microplate) followed by the addition of 50 μL of assay diluents in all the wells. After incubation for 2 hr at room temperature, the wells were washed thoroughly with wash buffer provided and then 200 μL of conjugate was added to each well. The plate was incubated for 2 hr at room temperature. After washing again, 200 μL of substrate solution was added to each well and incubated for 20 minutes at room temperature. 50 μL of Stop Solution to each well which will cause the colour change in the wells from blue to yellow was added. The optical density was read at 450 nm which is directly proportional to TNF α content and the percentage of inhibition of TNF α content on treatment with sample was calculated with respect to that of the untreated cells.
T=absorbance due to TNF α in the presence of inhibitor

[1] = molecular target: Collagenase Type IV from Clostridium histolyticum; details: for Collagenase inhibition, % inhibition: at 500 μg/ml
LTB4 = LTB4 inhibition (same procedure as TNF α); assay type: cell-based, human; details: result in words
Description: The above procedure is also followed for determining LTB4 inhibition by Oleanoyl peptide. From the results tabulated in table 1, it is clear that Oleanoyl peptide is a better TNF α and LTB4 inhibitor.

[2] = DPPH free radical scavenging assay; details: result in words
Description: The DPPH assay is often used to evaluate the ability of antioxidants to scavenge free radicals which are known to be a major factor in biological damages caused by oxidative stress. This assay is known to give reliable information concerning the antioxidant ability of the tested compounds. The assay is based on the color change of the stable free radical DPPH from purple to yellow as the radical is quenched by the antioxidant.
The assay mixture tubes containing 1.5 ml of 0.1 mM DPPH methanolic solution and varying concentrations of the sample in a total volume of 3 ml were incubated at 37° C. for 30 minutes in a shaking water bath. The reduction in absorbance which is directly proportional to the radical scavenging is measured spectrophotometrically at 517 nm. […] The percentage of scavenging is calculated as follows, % scavenging=[(C−T)/C]×100 Where C=absorbance in the absence of inhibitor
T=absorbance in the presence of inhibitor

[3] = molecular target: porcine pancreatic elastase (Sus scrofa, UniProt P00772); test: EnzChek Elastase Assay, elastase inhibitory potential; details: for Elastase inhibition (IC50 μg/ml): porcine pancreatic elastase 0.1 U/ml, DQ Elastin, 30 minutes
Description: The EnzChek kit contains DQelastin, fluorescein conjugated soluble bovine neck ligament elastin. This substrate is efficiently digested by elastase to yield highly fluorescent peptides. […] Elastase used for the assay is purified from porcine pancreas.
T=absorbance due to elastase activity in the presence of inhibitor

[4] = system: Interleukin-1beta (IL-1β); test: Extracellular IL-1β from LPS-challenged human neutrophils; assay type: cell-based; details: test sample 100 μg/ml
Description: (§1) Experimental observations were made in human neutrophil that were challenged with LPS. […] Rolipram at 100 μg/ml dose level was used as a standard drug to observe the authenticity and reproducibility of the experimental design.

Prostaglandin E2 (PGE2) = test: Extracellular PGE2 from LPS-challenged human neutrophils; assay type: cell-based; details: test sample 100 μg/ml
Description: as §1
(§2) The Oleanoyl peptide was also screened for NO and PGE2 expression.

Nitric Oxide (NO) = test: Extracellular nitric oxide from LPS-challenged human neutrophils; assay type: cell-based; details: test sample 100 μg/ml
Description: as §1, §2

Interleukin-6 (IL-6) = test: Extracellular IL-6 from LPS-challenged human neutrophils; assay type: cell-based; details: test sample 100 μg/ml
Description: as §1

[5] = system: B16F1 mouse melanoma cells; test: Melanin inhibition in α-MSH induced melanoma cells; assay type: cell-based; details: α-MSH induced, 9 days; for IC50: Mus musculus, B16-F1, 216 h, read-out: Melanin inhibition IC50 (μg/ml), Individual active
Description: B16F1 mouse melanoma cells were seeded in a 6 well microtiter plate at a seeding density of 5000 cells per well in 2 ml DMEM medium per well. After 24 hours of incubation in a CO2 incubator, melanin production is induced by 0.1 nM ∝-MSH by replacing the medium with medium containing ∝-MSH. The cells were then treated with varying concentrations of sample (composition containing oleanoyl peptide and stilbenes/licorice extract/THC) over a period of 9 days with renewal of ∝-MSH containing medium and sample at regular intervals of 3 days. Control wells were maintained without sample treatment and only with the vehicle used for sample preparation. After the incubation period, the medium was removed and the cells were scraped and washed in PBS. Thereafter, melanin was extracted by 1N NaOH in boiling water bath for 5 minutes. The absorbance of the melanin extract was read at 405 nm in a microplate reader. The inhibitory effect of the sample is calculated based on the decrease of melanin formation.
T=absorbance due to melanin in the presence of inhibitor

[6] = at 1.25 ppm, 48 hrs, vs untreated cells

Sequence of porcine pancreatic elastase (P00772 27-266): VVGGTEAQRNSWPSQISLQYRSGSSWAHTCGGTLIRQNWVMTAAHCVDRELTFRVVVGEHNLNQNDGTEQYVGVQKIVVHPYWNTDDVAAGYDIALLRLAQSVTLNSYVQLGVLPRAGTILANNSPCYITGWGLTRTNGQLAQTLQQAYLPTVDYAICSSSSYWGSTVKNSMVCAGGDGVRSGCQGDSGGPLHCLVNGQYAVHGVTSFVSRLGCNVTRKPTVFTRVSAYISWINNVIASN

**Q.** Which enhancement in collagen (Human osteosarcoma cells; result in words, concentration not given) does the source give for `CC1(C)CC[C@]2(C(=O)O)CC[C@]3(C)C(=CC[C@@H]4[C@@]5(C)CC[C@H](O)C(C)(C)[C@@H]5CC[C@]43C)[C@@H]2C1` [Oleanolic acid] here?
**A.** did not show any enhancement

**Q.** And the inhibition at 100 µg/mL (TNF α; Homo sapiens, at 100 μg/ml)?
**A.** 17%

**Q.** And the “Collagenase inhibition (IC50 μg/ml)” value ([1]; Collagenase Type IV 0.2 U/ml, DQ gelatin, 30 minutes)?
**A.** 129 µg/mL

**Q.** And the LTB4 inhibition (LTB4)?
**A.** Nil

**Q.** And the “Anti-oxidant activity by DPPH Method” value [2]?
**A.** Nil

**Q.** Which results are given for `CCCCCCCCCCCCCCCC(=O)N[C@@H](CCCCN)C(=O)N[C@H](C(=O)N[C@H](C(=O)N[C@@H](CCCCN)C(=O)N[C@@H](CO)C(=O)O)[C@@H](C)O)[C@@H](C)O` [Pal-Lys-Thr-Thr-Lys-Ser, palmitoyl-lysyl-threonyl-threonyl-lysyl-serine] (Palmitoyl-KTTKS-OH)?
**A.** enhancement in collagen (Human osteosarcoma cells; [6]): 11%; TNF α inhibition (IC50 μg/ml) (TNF α): Nil; inhibition at 500 µg/mL ([3]; read-out: Elastase inhibition, % inhibition): 16%; Collagenase inhibition, % inhibition [1]: 38%; LTB4 inhibition (LTB4): Nil; Anti-oxidant activity by DPPH Method [2]: Nil

**Q.** For `C[C@@H](O)[C@H](NC(=O)[C@@H](NC(=O)[C@@H](N)CCCCN)[C@@H](C)O)C(=O)N[C@@H](CCCCN)C(=O)N[C@@H](CO)C(=O)O` [Peptide of SEQ ID No. 1, Lysyl-Threonyl-Threonyl-Lysyl-Serine] (H-KTTKS-OH), which enhancement in collagen (Human osteosarcoma cells; [6]) is on record?
**A.** 5%

**Q.** What about the “TNF α inhibition (IC50 μg/ml)” value (TNF α) of the same compound?
**A.** Nil

**Q.** What about the “Elastase inhibition (IC50 μg/ml)” value [3] of the same compound?
**A.** Nil

**Q.** And the “Elastase inhibition (IC50 μg/ml)” value ([3]; listed as peptide of SEQ ID NO: 1)?
**A.** did not show elastase inhibition

**Q.** What about the “Collagenase inhibition, % inhibition” value [1] of the same compound?
**A.** 24%

**Q.** And the LTB4 inhibition (LTB4)?
**A.** Nil

**Q.** And the “Anti-oxidant activity by DPPH Method” value [2]?
**A.** Nil

**Q.** What does the source list for `COc1ccc(C2CNC(=O)C2)cc1OC1CCCC1` (stereo not drawn) [Rolipram, reference compound]?
**A.** Concentration of IL-1β produced (pg/ml) Mean ± S.E. [4]: 67.52 ± 2.07 pg/mL; % activity IL-1β expression against LPS control ([4]; ↓ = inhibition): 51.62↓ %; Concentration of PGE2 produced (pg/ml) Mean ± S.E. (Prostaglandin E2 (PGE2)): 265.71 ± 10.09 pg/mL; % activity PGE2 expression against LPS control (Prostaglandin E2 (PGE2); ↓ = inhibition): 65.44↓ %; Concentration of NO produced (μmol/ml) Mean ± S.E. (Nitric Oxide (NO)): 24.83 ± 2.07 µmol/mL; % activity NO expression against LPS control (Nitric Oxide (NO); ↓ = inhibition): 43.98↓ %; Concentration of IL-6 produced (pg/ml) Mean ± S.E. (Interleukin-6 (IL-6)): 72.65 ± 2.07 pg/mL; % activity IL-6 expression against LPS control (Interleukin-6 (IL-6); ↓ = inhibition): 48.92↓ %

**Q.** Which “Melanin inhibition IC50 (μg/ml), Individual active” value [5] does the source give for `COc1cc(/C=C/c2ccc(O)c(O)c2)cc(OC)c1` [3Hydroxypterostilbene] here?
**A.** 0.8 ± 0.22 µg/mL

**Q.** Which IC50 [5] does the source give for `Oc1cc(O)cc(/C=C/c2ccc(O)cc2O)c1` [Oxyresveratrol] here?
**A.** 8 ± 1.2 µg/mL (≈ 32.8 µM)

**Q.** For `Oc1ccc(C=Cc2cc(O)cc(O)c2)cc1` [Resveratrol], which IC50 [5] is on record?
**A.** 3 ± 0.2 µg/mL (≈ 13.1 µM)

**Q.** Which IC50 [5] does the source give for `COc1cc(/C=C/c2ccc(O)cc2)cc(OC)c1` [Pterostilbene] here?
**A.** 0.6 ± 0.1 µg/mL (≈ 2.34 µM)
